Assay results taken from PubChem BioAssay AID330 (DTP/NCI, 2004).
Values joined by “and” are separate entries in the source; they are usually repeats but may differ in a detail not shown here. Equal entries are not always repeated. Inconclusive results and toxic doses are left out. How the source made its calls: active means survival T/C of 150% or more; inactive means T/C below 125% in these data.

System: P388 leukemia ip, CD2F1 mice, survival T/C
Experiment: NCI In Vivo Anticancer Drug Screen. Data for tumor model P388 Leukemia (intraperitoneal) in CD2F1 (CDF1) mice
Details: endpoint: median survival time, higher = longer survival
Outline: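 Mice carrying the transplanted tumor received test compound or vehicle. Survival was recorded in each group, and the value is the treated-group measurement divided by that of the vehicle-treated control group.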

[1] = dose: 60.0 mg/kg/injection, schedule: Q01DX005 (ip), vehicle: saline with Tween-80
[2] = dose: 120.0 mg/kg/injection, schedule: Q01DX005 (ip), vehicle: saline with Tween-80
[3] = dose: 240.0 mg/kg/injection, schedule: Q01DX005 (ip), vehicle: saline with Tween-80
[4] = dose: 6.25 mg/kg/injection, schedule: Q01DX005 (ip), vehicle: Klucel (hydroxypropylcellulose) (HPC)
[5] = dose: 50.0 mg/kg/injection, schedule: Q01DX005 (ip), vehicle: saline with Tween-80
[6] = dose: 100.0 mg/kg/injection, schedule: Q01DX005 (ip), vehicle: saline with Tween-80
[7] = dose: 200.0 mg/kg/injection, schedule: Q01DX005 (ip), vehicle: saline with Tween-80
[8] = dose: 100.0 mg/kg/injection, schedule: Q01DX001 (ip), vehicle: saline with Tween-80
[9] = dose: 200.0 mg/kg/injection, schedule: Q01DX001 (ip), vehicle: saline with Tween-80
[10] = dose: 400.0 mg/kg/injection, schedule: Q01DX001 (ip), vehicle: saline with Tween-80
[11] = dose: 50.0 mg/kg/injection, schedule: Q01DX009 (ip), vehicle: Klucel (hydroxypropylcellulose) (HPC)
[12] = dose: 100.0 mg/kg/injection, schedule: Q01DX009 (ip), vehicle: Klucel (hydroxypropylcellulose) (HPC)
[13] = dose: 200.0 mg/kg/injection, schedule: Q01DX009 (ip), vehicle: Klucel (hydroxypropylcellulose) (HPC)
[14] = dose: 25.0 mg/kg/injection, schedule: Q01DX009 (ip), vehicle: saline
[15] = dose: 50.0 mg/kg/injection, schedule: Q01DX009 (ip), vehicle: saline
[16] = dose: 100.0 mg/kg/injection, schedule: Q01DX009 (ip), vehicle: saline
[17] = dose: 200.0 mg/kg/injection, schedule: Q01DX009 (ip), vehicle: saline
[18] = dose: 12.5 mg/kg/injection, schedule: Q01DX009 (ip), vehicle: Klucel (hydroxypropylcellulose) (HPC)
[19] = dose: 25.0 mg/kg/injection, schedule: Q01DX009 (ip), vehicle: Klucel (hydroxypropylcellulose) (HPC)
[20] = dose: 100.0 mg/kg/injection, schedule: Q04DX003 (ip), vehicle: saline with Tween-80
[21] = dose: 200.0 mg/kg/injection, schedule: Q04DX003 (ip), vehicle: saline with Tween-80
[22] = dose: 400.0 mg/kg/injection, schedule: Q04DX003 (ip), vehicle: saline with Tween-80
[23] = dose: 50.0 mg/kg/injection, schedule: Q01DX005 (ip), vehicle: Klucel (hydroxypropylcellulose) (HPC)
[24] = dose: 100.0 mg/kg/injection, schedule: Q01DX005 (ip), vehicle: Klucel (hydroxypropylcellulose) (HPC)
[25] = dose: 200.0 mg/kg/injection, schedule: Q01DX005 (ip), vehicle: Klucel (hydroxypropylcellulose) (HPC)
[26] = dose: 15.0 mg/kg/injection, schedule: Q01DX005 (ip), vehicle: saline
[27] = dose: 30.0 mg/kg/injection, schedule: Q01DX005 (ip), vehicle: saline

Measured: T/C

CC(CCl)OC(=O)Nc1cccc(C(F)(F)F)c1 (stereo unspecified)
inactive: [1] 106 % of control | [2] 102 % of control | [3] 107 % of control

CN(C)CCOc1cccc(NC2=C(Cl)C(=O)C(Nc3cccc(OCCN(C)C)c3)=C(Cl)C2=O)c1
inactive: dose: 1.56 mg/kg/injection, schedule: Q01DX005 (ip), vehicle: Klucel (hydroxypropylcellulose) (HPC) 100 % of control and 107 % of control | dose: 3.12 mg/kg/injection, schedule: Q01DX005 (ip), vehicle: Klucel (hydroxypropylcellulose) (HPC) 107 % of control and 96 % of control | [4] 104 % of control and 122 % of control and 97 % of control

Cc1ccc(-n2c(=O)c3[nH]c4ccccc4sc=3c2=O)cc1
inactive: [5] 102 % of control | [6] 95 % of control | [7] 91 % of control

CC(=O)Nc1nc2ncc(CN(C(C)=O)c3ccc(C4=NC(CCC(=O)O)C(=O)O4)cc3)nc2c(=O)[nH]1 (stereo unspecified)
inactive: dose: 50.0 mg/kg/injection, schedule: Q04DX003 (ip), vehicle: alkali diluted with saline 97 % of control | dose: 100.0 mg/kg/injection, schedule: Q04DX003 (ip), vehicle: alkali diluted with saline 95 % of control | dose: 200.0 mg/kg/injection, schedule: Q04DX003 (ip), vehicle: alkali diluted with saline 102 % of control

CC(O)(CCCCCl)c1nc2ccccc2s1 (stereo unspecified)
inactive: [8] 98 % of control | [9] 103 % of control | [10] 92 % of control

COc1ccccc1NC(=O)C1=C(C)NC(C)=C(C(=O)Nc2ccccc2OC)C1c1ccc(Cl)cc1Cl
inactive: [5] 103 % of control | [6] 103 % of control | [7] 91 % of control

CN1C(=O)OC2OC(C)(c3ccc(S(=O)(=O)c4ccccc4)cc3)C(=O)CC21 (stereo unspecified)
inactive: [1] 100 % of control | [2] 97 % of control | [3] 90 % of control

Cc1c(Cl)cccc1N=Cc1cccs1
inactive: [11] 105 % of control | [12] 105 % of control | [13] 105 % of control

COC(=O)CC1C(C)(C)C(=O)C2CC3=C4CC(=O)OC(c5ccoc5)C4(C)CCC3C1(C)C2=O (stereo unspecified)
inactive: [1] 97 % of control | [2] 92 % of control | [3] 89 % of control

COC(=O)Cc1cccc2c(=O)cc(-c3cccs3)oc12
inactive: [14] 90 % of control | dose: 25.0 mg/kg/injection, schedule: Q01DX009 (ip), vehicle: suspension in saline 97 % of control | [15] 105 % of control and 92 % of control | dose: 50.0 mg/kg/injection, schedule: Q01DX009 (ip), vehicle: suspension in saline 94 % of control | [16] 117 % of control and 97 % of control | dose: 100.0 mg/kg/injection, schedule: Q01DX009 (ip), vehicle: suspension in saline 94 % of control | [17] 108 % of control | dose: 200.0 mg/kg/injection, schedule: Q01DX009 (ip), vehicle: suspension in saline 95 % of control

CC#CC#C/C=C1/C=CC2(CCCCO2)O1 (stereo unspecified)
inactive: [18] 100 % of control | [19] 101 % of control | [11] 107 % of control | [12] 104 % of control

CCOC(OCC)c1ccc(C)cc1
inactive: [20] 103 % of control | [21] 108 % of control | [22] 97 % of control

N#CN(Cc1ccccc1)Cc1ccccc1.[Br][Sn]([c]1ccccc1)([c]1ccccc1)[c]1ccccc1
inactive: dose: 3.12 mg/kg/injection, schedule: Q01DX005 (ip), vehicle: saline with Tween-80 100 % of control | dose: 6.25 mg/kg/injection, schedule: Q01DX005 (ip), vehicle: saline with Tween-80 100 % of control | dose: 12.5 mg/kg/injection, schedule: Q01DX005 (ip), vehicle: saline with Tween-80 91 % of control | [5] 114 % of control

CCOC(=O)C1CC1C(c1cccnc1C)S(=O)(=O)c1ccccc1 (stereo unspecified)
inactive: dose: 100.0 mg/kg/injection, schedule: Q04DX002 (ip), vehicle: saline with Tween-80 100 % of control | dose: 200.0 mg/kg/injection, schedule: Q04DX002 (ip), vehicle: saline with Tween-80 99 % of control | dose: 400.0 mg/kg/injection, schedule: Q04DX002 (ip), vehicle: saline with Tween-80 97 % of control

COC(=O)C1CSC(c2c(COP(=O)(O)O)cnc(C)c2O)N1 (stereo unspecified)
inactive: dose: 100.0 mg/kg/injection, schedule: Q01DX001 (ip), vehicle: saline 103 % of control | dose: 200.0 mg/kg/injection, schedule: Q01DX001 (ip), vehicle: saline 105 % of control | dose: 400.0 mg/kg/injection, schedule: Q01DX001 (ip), vehicle: saline 96 % of control

O=C(NC(Cc1ccc(Cl)cc1)C(=O)O)c1ccc(I)cc1 (stereo unspecified)
inactive: [23] 101 % of control | [24] 101 % of control | [25] 94 % of control

C[C@]12CC[C@H](O)CC1CC[C@@H]1C2CC[C@]2(C)NC(=O)CCC12 (stereo partly specified)
inactive: [8] 108 % of control | [9] 108 % of control | [10] 120 % of control

O=S(=O)(O)c1ccccc1P(c1ccccc1)c1ccccc1
inactive: [23] 98 % of control | [24] 94 % of control | [25] 88 % of control

Oc1ccccc1N=Nc1ccccc1O.[O]=[V]
inactive: dose: 3.13 mg/kg/injection, schedule: Q01DX009 (ip), vehicle: Klucel (hydroxypropylcellulose) (HPC) 99 % of control | dose: 6.25 mg/kg/injection, schedule: Q01DX009 (ip), vehicle: Klucel (hydroxypropylcellulose) (HPC) 107 % of control and 112 % of control | [18] 100 % of control and 106 % of control | [19] 90 % of control

C=C1OC(CC(C)C)=C(C(=O)OC(C)(C)C)C1C (stereo unspecified)
inactive: [8] 99 % of control | [9] 99 % of control | [10] 100 % of control

CC1=C(c2ccccc2)C(=O)OC1(c1ccccc1)c1ccccc1
inactive: dose: 50.0 mg/kg/injection, schedule: Q01DX001 (ip), vehicle: Klucel (hydroxypropylcellulose) (HPC) 91 % of control | dose: 100.0 mg/kg/injection, schedule: Q01DX001 (ip), vehicle: Klucel (hydroxypropylcellulose) (HPC) 88 % of control | dose: 200.0 mg/kg/injection, schedule: Q01DX001 (ip), vehicle: Klucel (hydroxypropylcellulose) (HPC) 89 % of control

NC(=S)CCCCCC(N)=S
inactive: [5] 103 % of control | [6] 111 % of control | [7] 103 % of control

O=C(O)CCSC1=CC(=O)c2ccccc2C1=O
inactive: dose: 6.25 mg/kg/injection, schedule: Q04DX003 (ip), vehicle: gum acacia 115 % of control | dose: 12.5 mg/kg/injection, schedule: Q04DX003 (ip), vehicle: gum acacia 110 % of control

O=C(NCCCCCCNC(=O)C1CCCN1)C1CCCN1 (stereo unspecified)
inactive: [26] 103 % of control | [27] 96 % of control | dose: 60.0 mg/kg/injection, schedule: Q01DX005 (ip), vehicle: saline 100 % of control and 97 % of control

O=C(OC1CSC=CSC1)c1ccccc1
inactive: [11] 104 % of control | [12] 109 % of control | [13] 110 % of control

CCC1(C)CC(C#N)(C#N)C(=O)NC1=O (stereo unspecified)
inactive: [1] 100 % of control | [2] 97 % of control | [3] 100 % of control

CC(NC(=O)C(NC(=O)c1ccc[n+](Cc2ccccc2)c1)C(C)C)C(N)=O (stereo unspecified)
inactive: dose: 7.5 mg/kg/injection, schedule: Q01DX005 (ip), vehicle: saline 109 % of control | [26] 104 % of control | [27] 98 % of control

O=C1N2CCNc3ccccc3C(c3ccccc3)N1CC2 (stereo unspecified)
inactive: [4] 88 % of control | dose: 12.5 mg/kg/injection, schedule: Q01DX005 (ip), vehicle: Klucel (hydroxypropylcellulose) (HPC) 93 % of control | dose: 25.0 mg/kg/injection, schedule: Q01DX005 (ip), vehicle: Klucel (hydroxypropylcellulose) (HPC) 102 % of control

Cc1ccc2c(c1)-c1nc3nnnn3nc1C(C)(C)O2
inactive: [1] 92 % of control | [2] 95 % of control | [3] 98 % of control

Nc1cc(=O)[nH]c2ncnn12
inactive: [14] 103 % of control | [15] 109 % of control | [16] 102 % of control | [17] 99 % of control

OCc1cc(-c2ccc(Cl)cc2)nc2c(C(F)(F)F)cccc12
inactive: [20] 100 % of control | [21] 111 % of control | [22] 92 % of control
